# Key:
# [1] = molecular target: T1, Glutamate receptor ionotropic, NMDA 2A (Rattus norvegicus, UniProt Q00959); assay: Inhibition of [3H]Glu binding to rat N-methyl-D-aspartic acid receptor 2A
# [2] = molecular target: T1, Glutamate receptor ionotropic, NMDA 2A; assay: Inhibition of [3H]CPP binding to rat N-methyl-D-aspartic acid receptor 2A
# T1 sequence (Q00959 whole entry): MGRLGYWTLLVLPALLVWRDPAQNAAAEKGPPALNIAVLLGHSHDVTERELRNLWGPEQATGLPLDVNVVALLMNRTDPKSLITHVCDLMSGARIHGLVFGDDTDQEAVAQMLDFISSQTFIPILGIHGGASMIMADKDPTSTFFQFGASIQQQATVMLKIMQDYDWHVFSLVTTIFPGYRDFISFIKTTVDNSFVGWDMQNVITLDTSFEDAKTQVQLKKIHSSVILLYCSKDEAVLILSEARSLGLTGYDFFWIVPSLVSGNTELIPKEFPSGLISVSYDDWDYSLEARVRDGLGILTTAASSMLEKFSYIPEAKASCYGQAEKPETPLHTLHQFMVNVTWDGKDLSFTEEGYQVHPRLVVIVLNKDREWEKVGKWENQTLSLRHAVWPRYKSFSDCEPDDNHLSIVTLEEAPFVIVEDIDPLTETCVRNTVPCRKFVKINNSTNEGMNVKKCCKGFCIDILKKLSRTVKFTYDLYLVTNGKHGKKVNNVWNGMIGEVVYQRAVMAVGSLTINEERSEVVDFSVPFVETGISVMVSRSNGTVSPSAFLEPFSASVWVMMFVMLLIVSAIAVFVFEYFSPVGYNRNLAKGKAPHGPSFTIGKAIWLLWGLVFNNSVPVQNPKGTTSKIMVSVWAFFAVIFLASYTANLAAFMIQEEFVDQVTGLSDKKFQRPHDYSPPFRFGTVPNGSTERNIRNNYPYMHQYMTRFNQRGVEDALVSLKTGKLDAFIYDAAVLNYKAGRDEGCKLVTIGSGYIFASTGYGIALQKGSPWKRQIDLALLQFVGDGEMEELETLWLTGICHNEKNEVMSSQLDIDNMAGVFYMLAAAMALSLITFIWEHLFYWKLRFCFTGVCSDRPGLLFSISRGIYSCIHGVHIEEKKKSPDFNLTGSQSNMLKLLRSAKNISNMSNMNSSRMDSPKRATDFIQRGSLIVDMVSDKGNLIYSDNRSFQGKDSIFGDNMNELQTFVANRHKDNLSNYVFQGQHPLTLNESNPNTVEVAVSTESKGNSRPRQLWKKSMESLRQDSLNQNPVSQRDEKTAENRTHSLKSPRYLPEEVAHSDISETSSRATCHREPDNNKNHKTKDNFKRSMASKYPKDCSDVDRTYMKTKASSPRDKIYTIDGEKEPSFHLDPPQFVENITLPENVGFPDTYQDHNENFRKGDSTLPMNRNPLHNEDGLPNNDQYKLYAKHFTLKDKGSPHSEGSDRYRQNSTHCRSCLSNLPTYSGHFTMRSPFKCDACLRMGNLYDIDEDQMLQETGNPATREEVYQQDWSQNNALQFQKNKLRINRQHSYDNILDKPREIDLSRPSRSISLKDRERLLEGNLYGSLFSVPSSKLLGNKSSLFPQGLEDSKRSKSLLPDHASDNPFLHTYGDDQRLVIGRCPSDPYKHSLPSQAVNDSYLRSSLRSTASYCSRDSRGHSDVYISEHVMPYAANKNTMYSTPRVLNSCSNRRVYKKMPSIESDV
SMILES,IC50 [1] [nM],IC50 [2] [nM]
CCC/C(=C\[C@@H](N)C(=O)O)CP(=O)(O)O,230,
N[C@H](CC(=O)CP(=O)(O)O)C(=O)O,,110
N[C@@H](CCCP(=O)(O)O)C(=O)O,1500,290
"O=C(O)[C@@H]1C[C@H](CP(=O)(O)O)CCN1 (single isomer, unassigned) [SELFOTEL]",840,95
C/C(=C\[C@@H](N)C(=O)O)CP(=O)(O)O [CGP-37849],220,35

# Source: ChEMBL document CHEMBL1145170, “Development of a three-dimensional model for the N-methyl-D-aspartate NR2A subunit” (J Med Chem, 2005)
